From publication PMC6783499, “Heteroglycoclusters With Dual Nanomolar Affinities for the Lectins LecA and LecB From Pseudomonas aeruginosa” (Frontiers in Chemistry, 2019)
“And” between values parts separate entries of the source, which are not always exact repeats. Identical values can stand only once.

Molecular target: T1, LecA (Pseudomonas aeruginosa, UniProt Q05097)
T1 construct: made in house; host or cells: Escherichia coli BL21(DE3)
Experiment: biochemical
Type: binding
Details: for –ΔH (binding enthalpy) / n (stoichiometry, glycocluster molecules per lectin monomer) / –ΔG / –ΔH / −TΔS: ITC; for n (stoichiometry, glycocluster molecules per lectin monomer) / –ΔG / –ΔH / −TΔS: 25°C; for n (stoichiometry, glycocluster molecules per lectin monomer): pH 7.5; for –ΔG / –ΔH / −TΔS: per mole of glycocluster; for α (relative potency compared to the monovalent compound) / β (relative potency per sugar unit): relative to βGal-OMe
Procedure: The resulting hGCs were tested in solution with lectins by Isothermal Titration Calorimetry (Table 1) and their binding properties were compared with homoclusters 15–20 (Berthet et al., [2013]; Thomas et al., [2015b]) displaying either 4 and 16 βGal or αFuc units attached with an oxime or a triazole linker (Figure 3). […] Experiments were performed in direct injection mode (i.e., ligand in syringe and protein in cell) to minimize aggregation problems.
All chemical reagents were purchased from Aldrich (Saint Quentin Fallavier, France) or Acros (Noisy-Le-Grand, France). All protected amino acids and Fmoc-Gly-Sasrin® resin was obtained from Advanced ChemTech Europe (Brussels, Belgium). For peptides and glycopeptides, analytical RP-HPLC was performed on Waters system equipped with a Waters 2695 separations module and a Waters 2487 Dual Absorbance UV/Visible Detector. Analysis was carried out at 1.0 mL/min (EC 125/3 nucleosil 300-5 C18) with UV monitoring at 214 nm and 250 nm using a linear A–B gradient (buffer A: 0.09% CF3CO2H in water; buffer B: 0.09% CF3CO2H in 90% acetonitrile). Purifications were carried out at 22.0 mL/min (VP 250/21 nucleosil 100-7 C18) with UV monitoring at 214 nm and 250 nm using a linear A–B gradient. HRMS and ESI-MS and HRMS spectra of peptides and glycopeptides were measured on an Esquire 3000 spectrometer from Bruker. Lectins LecA and LecB were produced in recombinant form in Escherichia coli BL21(DE3) as described previously (Mitchell et al., [2005]; Blanchard et al., [2008]).
Other compounds were assayed with a VP-ITC isothermal titration calorimeter (Microcal). The experiments were carried out at 25°C. All glycocompounds and lectins LecB and LecA were dissolved in the same buffer composed of 20 mM Tris with 100 mM NaCl and 0.1 mM CaCl2 at pH 7.5. For PEAQ-ITC, the lectins were placed in the microcalorimeter cell (200 μL) at concentrations varying from 35 to 70 μM. […] For VP-ITC, the microcalorimeter cell (1.447 mL) contained the lectins with concentrations between 30 and 100 μM. […] The experimental data were fitted to a theoretical titration curve using the Microcal PEAQ-ITC analysis software, with ΔH (enthalpy change), Ka (association constant), and N (number of binding sites per monomer) as adjustable parameters. Dissociation constant (Kd), free energy change (ΔG), and entropy contributions (TΔS) were derived from the previous ones. Two or three independent titrations were performed for each ligand tested.

T1 sequence (Q05097 whole entry): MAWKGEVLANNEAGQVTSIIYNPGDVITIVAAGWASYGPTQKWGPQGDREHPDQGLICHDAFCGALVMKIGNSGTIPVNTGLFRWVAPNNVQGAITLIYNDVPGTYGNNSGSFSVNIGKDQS

SMILES: C[C@@H]1NC(=O)[C@H](CCCCNC(=O)/C=N/O[C@H]2O[C@H](CO)[C@@H](O)[C@H](O)[C@@H]2O)NC(=O)CNC(=O)[C@@H]2CCCN2C(=O)[C@H](CCCCNC(=O)/C=N/O[C@H]2O[C@H](CO)[C@@H](O)[C@H](O)[C@@H]2O)NC(=O)[C@H](CCCCNC(=O)CO/N=C/C(=O)NCCCC[C@@H]2NC(=O)CNC(=O)[C@@H]3CCCN3C(=O)[C@H](CCCCNC(=O)/C=N/OCC(=O)NCCCC[C@@H]3NC(=O)[C@H](CCCCNC(=O)/C=N/O[C@H]4O[C@H](CO)[C@@H](O)[C@H](O)[C@@H]4O)NC(=O)CNC(=O)[C@@H]4CCCN4C(=O)[C@H](CCCCNC(=O)/C=N/O[C@H]4O[C@H](CO)[C@@H](O)[C@H](O)[C@@H]4O)NC(=O)[C@H](C)NC(=O)[C@H](CCCCNC(=O)/C=N/O[C@H]4O[C@H](CO)[C@@H](O)[C@H](O)[C@@H]4O)NC(=O)CNC(=O)[C@@H]4CCCN4C(=O)[C@H](CCCCNC(=O)/C=N/O[C@H]4O[C@H](CO)[C@@H](O)[C@H](O)[C@@H]4O)NC3=O)NC(=O)[C@H](CCCCN)NC(=O)[C@H](CCCCNC(=O)CO/N=C/C(=O)NCCCC[C@@H]3NC(=O)[C@H](CCCCn4cc(CO[C@@H]5O[C@H](CO)[C@H](O)[C@H](O)[C@H]5O)nn4)NC(=O)CNC(=O)[C@@H]4CCCN4C(=O)[C@H](CCCCn4cc(CO[C@@H]5O[C@H](CO)[C@H](O)[C@H](O)[C@H]5O)nn4)NC(=O)[C@H](C)NC(=O)[C@H](CCCCn4cc(CO[C@@H]5O[C@H](CO)[C@H](O)[C@H](O)[C@H]5O)nn4)NC(=O)CNC(=O)[C@@H]4CCCN4C(=O)[C@H](CCCCn4cc(CO[C@@H]5O[C@H](CO)[C@H](O)[C@H](O)[C@H]5O)nn4)NC3=O)NC(=O)CNC(=O)[C@@H]3CCCN3C(=O)[C@H](CCCCNC(=O)CO/N=C/C(=O)NCCCC[C@@H]3NC(=O)[C@H](CCCCn4cc(CO[C@@H]5O[C@H](CO)[C@H](O)[C@H](O)[C@H]5O)nn4)NC(=O)CNC(=O)[C@@H]4CCCN4C(=O)[C@H](CCCCn4cc(CO[C@@H]5O[C@H](CO)[C@H](O)[C@H](O)[C@H]5O)nn4)NC(=O)[C@H](C)NC(=O)[C@H](CCCCn4cc(CO[C@@H]5O[C@H](CO)[C@H](O)[C@H](O)[C@H]5O)nn4)NC(=O)CNC(=O)[C@@H]4CCCN4C(=O)[C@H](CCCCn4cc(CO[C@@H]5O[C@H](CO)[C@H](O)[C@H](O)[C@H]5O)nn4)NC3=O)NC(=O)[C@H](C)NC2=O)NC(=O)[C@H](CCCCNC(=O)/C=N/O[C@H]2O[C@H](CO)[C@@H](O)[C@H](O)[C@@H]2O)NC(=O)CNC(=O)[C@@H]2CCCN2C(=O)[C@H](CCCCNC(=O)/C=N/O[C@H]2O[C@H](CO)[C@@H](O)[C@H](O)[C@@H]2O)NC1=O [Compound 14]
- Kd: 21 ± 4 nM
- –ΔH (binding enthalpy) (LecA): 51.6 to 58.1 kcal/mol
- n (stoichiometry, glycocluster molecules per lectin monomer) (LecA): 0.16
- –ΔG (LecA): 10.5 kcal/mol
- –ΔH (LecA): 58.13 ± 4.54 kcal/mol
- −TΔS (LecA): 47.6 kcal/mol
- α (relative potency compared to the monovalent compound) (LecA): 7,142
- β (relative potency per sugar unit) (LecA): 900 and 893

SMILES: C[C@@H]1NC(=O)[C@H](CCCCn2cc(CO[C@@H]3O[C@H](CO)[C@H](O)[C@H](O)[C@H]3O)nn2)NC(=O)CNC(=O)[C@@H]2CCCN2C(=O)[C@H](CCCCn2cc(CO[C@@H]3O[C@H](CO)[C@H](O)[C@H](O)[C@H]3O)nn2)NC(=O)[C@H](CCCCN)NC(=O)[C@H](CCCCn2cc(CO[C@@H]3O[C@H](CO)[C@H](O)[C@H](O)[C@H]3O)nn2)NC(=O)CNC(=O)[C@@H]2CCCN2C(=O)[C@H](CCCCn2cc(CO[C@@H]3O[C@H](CO)[C@H](O)[C@H](O)[C@H]3O)nn2)NC1=O [Compound 18]
- n (stoichiometry, glycocluster molecules per lectin monomer) (LecA): 0.26
- –ΔG (LecA): 10.5 kcal/mol
- –ΔH (LecA): 33.22 ± 0.24 kcal/mol
- −TΔS (LecA): 22.8 kcal/mol
- α (relative potency compared to the monovalent compound) (LecA): 7,000 and 6,818
- β (relative potency per sugar unit) (LecA): 1,700 and 1,705

SMILES: C[C@@H]1NC(=O)[C@H](CCCCNC(=O)/C=N/OCC(=O)NCCCC[C@@H]2NC(=O)[C@H](CCCCn3cc(CO[C@@H]4O[C@H](CO)[C@H](O)[C@H](O)[C@H]4O)nn3)NC(=O)CNC(=O)[C@@H]3CCCN3C(=O)[C@H](CCCCn3cc(CO[C@@H]4O[C@H](CO)[C@H](O)[C@H](O)[C@H]4O)nn3)NC(=O)[C@H](C)NC(=O)[C@H](CCCCn3cc(CO[C@@H]4O[C@H](CO)[C@H](O)[C@H](O)[C@H]4O)nn3)NC(=O)CNC(=O)[C@@H]3CCCN3C(=O)[C@H](CCCCn3cc(CO[C@@H]4O[C@H](CO)[C@H](O)[C@H](O)[C@H]4O)nn3)NC2=O)NC(=O)CNC(=O)[C@@H]2CCCN2C(=O)[C@H](CCCCNC(=O)/C=N/OCC(=O)NCCCC[C@@H]2NC(=O)[C@H](CCCCn3cc(CO[C@@H]4O[C@H](CO)[C@H](O)[C@H](O)[C@H]4O)nn3)NC(=O)CNC(=O)[C@@H]3CCCN3C(=O)[C@H](CCCCn3cc(CO[C@@H]4O[C@H](CO)[C@H](O)[C@H](O)[C@H]4O)nn3)NC(=O)[C@H](C)NC(=O)[C@H](CCCCn3cc(CO[C@@H]4O[C@H](CO)[C@H](O)[C@H](O)[C@H]4O)nn3)NC(=O)CNC(=O)[C@@H]3CCCN3C(=O)[C@H](CCCCn3cc(CO[C@@H]4O[C@H](CO)[C@H](O)[C@H](O)[C@H]4O)nn3)NC2=O)NC(=O)[C@H](CCCCN)NC(=O)[C@H](CCCCNC(=O)/C=N/OCC(=O)NCCCC[C@@H]2NC(=O)[C@H](CCCCn3cc(CO[C@@H]4O[C@H](CO)[C@H](O)[C@H](O)[C@H]4O)nn3)NC(=O)CNC(=O)[C@@H]3CCCN3C(=O)[C@H](CCCCn3cc(CO[C@@H]4O[C@H](CO)[C@H](O)[C@H](O)[C@H]4O)nn3)NC(=O)[C@H](C)NC(=O)[C@H](CCCCn3cc(CO[C@@H]4O[C@H](CO)[C@H](O)[C@H](O)[C@H]4O)nn3)NC(=O)CNC(=O)[C@@H]3CCCN3C(=O)[C@H](CCCCn3cc(CO[C@@H]4O[C@H](CO)[C@H](O)[C@H](O)[C@H]4O)nn3)NC2=O)NC(=O)CNC(=O)[C@@H]2CCCN2C(=O)[C@H](CCCCNC(=O)/C=N/OCC(=O)NCCCC[C@@H]2NC(=O)[C@H](CCCCn3cc(CO[C@@H]4O[C@H](CO)[C@H](O)[C@H](O)[C@H]4O)nn3)NC(=O)CNC(=O)[C@@H]3CCCN3C(=O)[C@H](CCCCn3cc(CO[C@@H]4O[C@H](CO)[C@H](O)[C@H](O)[C@H]4O)nn3)NC(=O)[C@H](C)NC(=O)[C@H](CCCCn3cc(CO[C@@H]4O[C@H](CO)[C@H](O)[C@H](O)[C@H]4O)nn3)NC(=O)CNC(=O)[C@@H]3CCCN3C(=O)[C@H](CCCCn3cc(CO[C@@H]4O[C@H](CO)[C@H](O)[C@H](O)[C@H]4O)nn3)NC2=O)NC1=O [Compound 20]
- lower β factor than 18 (LecA, 20 versus 18): 2.5
- –ΔH (binding enthalpy) (LecA): 90.3 kcal/mol
- n (stoichiometry, glycocluster molecules per lectin monomer) (LecA): 0.09
- –ΔG (LecA): 10.7 kcal/mol
- –ΔH (LecA): 90.49 ± 3.59 kcal/mol
- −TΔS (LecA): 79.78 kcal/mol
- binding to LecA in words (LecA, abstract): nanomolar affinity
- α (relative potency compared to the monovalent compound) (LecA): 10,000 and 10,714
- β (relative potency per sugar unit) (LecA): 670

SMILES: CO[C@@H]1O[C@H](CO)[C@H](O)[C@H](O)[C@H]1O [βGal-OMe, methyl β-D-galactoside]
- α (relative potency compared to the monovalent compound) (LecA): 1
- β (relative potency per sugar unit) (LecA): 1
